Data from US9180212B2, “β-amyloid plaque imaging agents” (The Regents of the University of California, priority 2012, dated 2015).
“Also recorded” adds a separate entry of the source.

Experiments:
[1] = tested on: brown adipose tissue (BAT) metabolic activity; assay: ^18F-FDG PET/CT uptake in interscapular BAT of rats; assay type: in vivo, Sprague-Dawley rats
Source text: (§1) In still further experiments, binding/uptake of contemplated compounds to/by NET was investigated in adipose tissue, and especially brown adipose tissue. It should be appreciated that due to the innervation of brown adipose tissue (BAT) with neurotransmitter, norepinephrine is essential for regulation of thermogenesis, and thus has a role in obesity and diabetes. Norepinephrine acts by activating β3-adrenoceptor to increase BAT metabolic activity measurable using ^18F-FDG PET. Norepinephrine transporter (NET) inhibitors such as atomoxetine play an important role in BAT activity by increasing norepinephrine levels.
(§2) Male Sprague-Dawley rats were fasted for 24 hrs prior to ^18F-FDG administration. Rats were administered i.v. ˜0.3 mCi ^18F-FDG under 2% isoflurane anesthesia. The same rats were treated with atomoxetine 1 mg/kg, 30 mins before ^18F-FDG administration. Rats were awake for 60 mins and subsequently anesthetized for upper-body Inveon MicroPET/CT scan. To evaluate whether enhanced ^18F-FDG uptake in activated BAT could be reduced by pharmacologic interventions, propranolol ([…]) 5 mg/kg was given intraperitoneally in anesthetized rats, 30 minutes prior to atomoxetine administration. For NET imaging, ^11C-TAZA (4-^11C-methylamino-4′-dimethylaminoazobenzene) and ^11C-Dalene (4-methylamino-4′-(N—^11C-methyl-N-methylamino)stilbene) were administered iv (˜0.5-3 mCi) and scanned in Inveon PET/CT for 90 mins. Competition studies were done with atomoxetine (preinjection, 1-2 mg/kg). PET/CT data was analysed using IRW and PMOD.

amyloid plaques = target: T1, amyloid plaques (Homo sapiens, UniProt P05067); assay: ^3H-PIB competition binding in human Alzheimers brain homogenate
T1 construct: target the polymeric form of the β-amyloid peptide that is associated with senile plaques; from tissue; host or cells: human Alzheimer's disease brain homogenate (post mortem)

[2] = target: T2, SP (senile plaques) in hippocampus of AD patients (Homo sapiens, UniProt P05067); assay: In vitro autoradiography of human hippocampus slices (AD vs control), senile plaque imaging; assay type: binding; settings: for Binding to SP present in AD brains compared to the normal controls (in words): autoradiography
T2 construct: target the polymeric form of the β-amyloid peptide that is associated with senile plaques; from tissue; host or cells: 7 micron frozen sections of hippocampus of AD patients and control brains (UCI-ADRC repository)
Source text: Human post-mortem Studies: We used post mortem human brain specimens from the UCI-ADRC Brain tissue repository for in vitro experiments. Age and gender matched AD brain and control brain tissue were used. Control cases consisted of clinically assessed nondemented individuals ranging in age from 70-90 years of age. AD brain samples were selected for end-stage pathology (based upon comments by the neuropathologist and Braak & Braak stage of VI. We matched each AD case with a similarly aged control case. AD cases, were selected on the basis as having a clinic visit within 1 year of death. Frozen hippocampus and frontal cortex, regions vulnerable to AD pathology, were selected for these studies. Sections of the cerebellum were used as a measure of low/nonspecific binding. Chunks of frozen tissue were dissected for immunohistochemical and autoradiographic techniques, as well as for biochemical experiments.
Serial cryostat sections at 5-10 μm were used. The first set of sections was used to establish the extent of senile plaque and neurofibrillary tangle formation using immunohisto-chemistry and histological techniques. Antibodies against Aβ1-16, Aβ1-40 and Aβ1-42 were used to detect Aβ.
In vitro autoradiography studies were performed on 7 micron slices of hippocampus of AD patients (n=2) and control brains (n=2). Hippocampus slices were incubated with the radiotracer (10-25 μCi/cc) in 40% ethanol-water for ½ hour.
Binding to norepinephrine transporters (NET) were further evaluated in normal rats using PET/CT. Radiosynthesis was carried out by reacting 4-amino-4′-dimethylaminoazobenzene (1 mg/0.5 cc acetone for ^11C-TAZA) and 4-methylamino-4′-(N-methylamino)stilbene (1 mg/0.5 cc acetone for ^11C-Dalene) with 11C-methyltriflate prepared in the GE FXCPro synthesis unit. ^11C-Methyltriflate was trapped at −20° C., subsequently heated for 5 mins at 80° C. and purified using HPLC. In vitro autoradiography studies were performed on 7 micron slices of hippocampus of AD patients and control brains.
(§3) Slices were then washed and exposed on to phosphor screens and slides were analysed by Optiquant image analysis program for SP binding Digital light units/mm^2 (DLU/mm^2). Sprague-Dawley rats were scanned after IV injection of ^11C-TAZA and ^11C-Dalene in Inveon PET/CT and displacement studies were done with atomoxetine (1 mg/kg). PET images were analyzed using PMOD.

[3] = tested on: norepinephrine transporters (NET); assay: Rat brain PET with atomoxetine pre-injection (NET binding/uptake); assay type: in vivo, Sprague-Dawley rats
Description: Based on earlier experimental observations (not shown), the inventors contemplated that the compounds presented herein not only bind with high specificity to β-amyloid, but also with similar high specificity to the NET. To investigate binding to/uptake by the NET, the effect of atomoxetine (ATX, a selective norepinephrine reuptake inhibitor) on the kinetics of Dalene and TAZA was tested. More specifically, Sprague-Dawley rats (308-468 g) received two 90 min PET scans each on two separate days (1-4 weeks apart) with an Inveon scanner. On first day each rat received a baseline scan, one with [^11C]Dalene and the other with [^11C]TAZA (96±8 MBq). The second day each animal was pre-injected i.v. with a 50 μl bolus of ATX (1-2 mg/Kg), 17 min before [^11C]Dalene and 2 min before [^11C]TAZA (33±7 MBq). The images were reconstructed dynamically in 25 frames (4×0.5 min, 8×1 min, 5×2 min, 2×5 min, 6×10 min). Each subject received a CT scan that was used for attenuation and scatter correction. Images were normalized to Paxinos & Watson space via co-registration with an MR rat template. Common regions of interest were drawn on the MR template and placed on brainstem, thalamus (Tha), and midbrain (Mid), brain regions with highest uptake as well as anterior cingulate cortex area 1 (Cg1), region with low NET density and which was chosen as a reference based on previous studies. Time activity curves (TACs) from all regions were analyzed in PMOD using Logan non-invasive method with Cg1's k2′ parameter estimated by fitting of brainstem data to MRTM.
as §3, with “PMOD. […] Presence of SP in the AD brains were confirmed using 4G8 antibody immunostaining for Aβ-amyloid. […] Ratios of brain stem to cingulate gyms (used as reference region) was >2.” for “PMOD.”

[4] = tested on: NET in brown adipose tissue (BAT); assay: Rat PET/CT NET imaging in brown adipose tissue; assay type: in vivo, Sprague-Dawley rats; settings: atomoxetine preinjection 1-2 mg/kg
Source text: as §1
as §2, with “For NET imaging, ^11C-TAZA (4-^11C-methylamino-4′-dimethylaminoazobenzene) and ^11C-Dalene (4-methylamino-4′-(N—^11C-methyl-N-methylamino)stilbene) were administered iv (˜0.5-3 mCi) and scanned in Inveon PET/CT for 90 mins. Competition studies were done with atomoxetine (preinjection, 1-2 mg/kg).” left out

[5] = cited from earlier work

T2 sequence (P05067 672-713 limits assumed): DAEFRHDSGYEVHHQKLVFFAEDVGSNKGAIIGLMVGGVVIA
T1 sequence (P05067 672-713 limits assumed): as above

CNCC[C@@H](Oc1ccccc1C)c1ccccc1 [Atomoxetine, atomoxetine]
increase of average ^18F-FDG uptake of IBAT compared to controls ([1]; atomoxetine 1 mg/kg, 30 mins before ^18F-FDG): > 15 times
average ^18F-FDG uptake of IBAT ([1]; atomoxetine 1 mg/kg, 30 mins before ^18F-FDG, controls 23.9±8.7): 365±170 kBq/cc

CC(C)NCC(O)COc1cccc2ccccc12 (centres unmarked) [Propranolol, propranolol]
effect on average ^18F-FDG uptake of IBAT (in words) ([1]; propranolol 5 mg/kg intraperitoneally, 30 minutes prior to atomoxetine): reduced

CNc1ccc(N=Nc2ccc(N(C)C)cc2)cc1 [TAZA]
IC50 (amyloid plaques; human Alzheimers brain homogenate tissue in 10% alcohol in PBS buffer, ^3H-PIB, read-out: binding affinity (IC50)): 12.8 nM
times better in binding to amyloid plaques compared to PIB (amyloid plaques; human brain tissue, from IC50 values): ~10 times

CN(C)c1ccc(C=Cc2ccc(N[11CH3])cc2)cc1 [^11C-Dalene, 4-^11C-methylamino-4′-(N,N-dimethylamino)stilbene]
Displacement of radiotracer by unlabeled PIB (in words) ([2]; 10 μM PIB, hippocampus slices): not complete; also recorded: displaced
Binding to SP present in AD brains compared to the normal controls (in words) ([2]; hippocampus slices): bound specifically
Effect of atomoxetine on binding in NET brain regions (in words) ([3]; rat, in vivo): reduced the binding
baseline BPND (Mid) ([3]; rat, in vivo): 0.91
baseline BPND (Tha) ([3]; rat, in vivo): 0.86
baseline BPND (brainstem) ([3]; rat, in vivo): 1.42
change in BPND in ATX condition (Mid) ([3]; rat, in vivo): 5.4%
change in BPND in ATX condition (Tha) ([3]; rat, in vivo): −12%
change in BPND in ATX condition (brainstem) ([3]; rat, in vivo): −18%
peak uptake in ATX condition relative to control ([3]; rat, in vivo): 14 fold
time at which ratio target/reference reached a constant level ([3]; rat, in vivo): 20 min
reduction of IBAT binding by atomoxetine [4]: 35%

CN(C)c1ccc(N=Nc2ccc(N[11CH3])cc2)cc1 [^11C-TAZA, 4-^11C-methylamino-4′-dimethylamino-azobenzene]
Displacement of radiotracer by PIB ([2]; 10 μM PIB, hippocampus slices): > 80%
Displacement of radiotracer by unlabeled PIB (in words) ([2]; 10 μM PIB, hippocampus slices): displaced
Binding to SP compared with the other radiotracers (in words) ([2]; ^11C-TAZA vs ^11C-Dalene and ^11C-PIB): higher specific binding component; also recorded: highest binding
Binding to SP present in AD brains compared to the normal controls (in words) ([2]; hippocampus slices): bound specifically
change in BPND in ATX condition (brainstem) ([3]; ATX 1-2 mg/Kg i.v. pre-injection): 11%
Effect of atomoxetine on binding in NET brain regions (in words) ([3]; atomoxetine 1 mg/kg): reduced the binding
time at which ratio target/reference reached a constant level ([3]; baseline condition, post tracer injection): 20 min
baseline BPND (brainstem) ([3]; baseline scan, Logan non-invasive method, Cg1 reference): 0.7
peak uptake in ATX condition relative to control ([3]; brainstem, ATX 1-2 mg/Kg i.v. pre-injection): 5 fold
baseline BPND (Mid) ([3]; midbrain, baseline scan, Cg1 reference): 0.50
change in BPND in ATX condition (Mid) ([3]; midbrain, ATX 1-2 mg/Kg i.v. pre-injection): 18%
baseline BPND (Tha) ([3]; thalamus, baseline scan, Cg1 reference): 0.41
change in BPND in ATX condition (Tha) ([3]; thalamus, ATX 1-2 mg/Kg i.v. pre-injection): 6%
reduction of IBAT binding by atomoxetine [4]: 60%

CC(=C(C#N)C#N)c1ccc2cc(N(C)CC[18F])ccc2c1 [^18F-FDDNP, 2-(1-{6-[(2-[^18F]fluoroethyl)(methyl)amino]-2-naphtyl}ethylidene)malonitrile]
log P [5]: > 3
